Results published in BindingDB's records for doi:10.1021/jm00089a021 (Tanabe Seiyaku, 1992).
pIC50: −log10 of the molar value.

Target: Aldose reductase (Oryctolagus cuniculus)
Test: Tested in vitro for inhibitory activity against partially purified aldose reductase from male rabbit lens

| pIC50 | SMILES |
| --- | --- |
| 5.40 | NN1C(=O)Nc2ccccc2C12NC(=O)NC2=O (configuration not stated) |
| 6.40 | Cc1cccc2c1C1(NC(=O)NC1=O)N(C)C(=O)N2 (configuration not stated) |
| < 5.00 | CN1C(=O)Nc2ccccc2C12NC(=S)NC2=O (configuration not stated) |
| < 5.00 | O=C1NC(=O)C2(N1)c1ccccc1NC(=O)N2O (configuration not stated) |
| < 5.00 | CCCCN1C(=O)Nc2ccccc2C12NC(=O)NC2=O (configuration not stated) |
| < 5.00 | CN1C(=O)NC(=O)C12c1ccccc1NC(=O)N2C (configuration not stated) |
| < 5.00 | CC(C)N1C(=O)Nc2ccccc2C12NC(=O)NC2=O (configuration not stated) |
| < 5.00 | CN1C(=O)Nc2ccccc2C12SC(N)=NC2=O (configuration not stated) |
| 6.00 | CCN1C(=O)Nc2ccccc2C12NC(=O)NC2=O (configuration not stated) |
| 5.85 | O=C1NC(=O)C2(N1)NC(=O)Nc1ccccc12 (configuration not stated) |
| < 5.00 | CN1C(=O)NC2(C1=O)c1ccccc1NC(=O)N2C (configuration not stated) |
| < 5.00 | CN1C(=O)N(C)C2(C1=O)c1ccccc1NC(=O)N2C (configuration not stated) |

Second part, the molecule before the results:

| SMILES | pIC50 |
| --- | --- |
| CN1C(=O)Nc2cc(Cl)c([N+](=O)[O-])cc2C12NC(=O)NC2=O (configuration not stated) | 6.92 |
| CN1C(=O)Nc2ccc([N+](=O)[O-])cc2C12NC(=O)NC2=O (configuration not stated) | 7.14 |
| COc1ccc2c(c1)NC(=O)N(C)C21NC(=O)NC1=O (configuration not stated) | 6.44 |
| CN1C(=O)Nc2c(cc(F)c(F)c2F)C12NC(=O)NC2=O (configuration not stated) | 6.85 |
| Cc1cc2c(cc1Cl)C1(NC(=O)NC1=O)N(C)C(=O)N2 (configuration not stated) | 7.52 |
| CN1C(=O)Nc2cc(N3CCOCC3)c([N+](=O)[O-])cc2C12NC(=O)NC2=O (configuration not stated) | 6.37 |
| O=C1NC(=O)C2(N1)c1ccccc1NC(=O)N2Cc1ccccc1 (configuration not stated) | < 5.00 |
| CN1C(=O)Nc2ccc(Cl)cc2[C@@]12NC(=O)NC2=O | 7.66 |
| CN1C(=O)Nc2cc(Cl)c(Cl)cc2C12NC(=O)NC2=O (configuration not stated) | 7.13 |
| CN1C(=O)Nc2ccc(N)cc2C12NC(=O)NC2=O (configuration not stated) | < 5.00 |
| CN1C(=O)Nc2ccc(O)cc2C12NC(=O)NC2=O (configuration not stated) | < 5.00 |
| CN1C(=O)Nc2cc(Cl)ccc2C12NC(=O)NC2=O (configuration not stated) | 7.03 |
| Cc1ccc2c(c1)NC(=O)N(C)C21NC(=O)NC1=O (configuration not stated) | 6.66 |
| CN1C(=O)Nc2ccc(Cl)cc2C12NC(=O)NC2=O (configuration not stated) | 7.25 |
| CN1C(=O)Nc2ccc(Cl)cc2[C@]12NC(=O)NC2=O | 6.11 |
| CN1C(=O)Nc2cccc(Cl)c2C12NC(=O)NC2=O (configuration not stated) | 6.07 |
| CN1C(=O)Nc2ccc(Br)cc2C12NC(=O)NC2=O (configuration not stated) | 7.28 |
| CN1C(=O)Nc2c([N+](=O)[O-])cc(Cl)cc2C12NC(=O)NC2=O (configuration not stated) | 7.34 |
| CN1C(=O)Nc2ccc(OC(=O)c3ccccc3)cc2C12NC(=O)NC2=O (configuration not stated) | 5.70 |
| CN1C(=O)Nc2cc3c(cc2C12NC(=O)NC2=O)OCO3 (configuration not stated) | 5.74 |
